Reference: patent US5386030A, “Antiviral (phosphonomethoxy)methoxy purine/pyrimidine derivatives” (Institute of Organic Chemistry and Biochemistry of the …, priority 1993, dated 1995)
≈ marks a conversion by molar mass, not a printed value. Structures can show the parent of a compound that is named as a salt. Where two headings read alike, the source gives them in different places.

What was measured:
herpes simples virus-2 = assay: survival of mice inoculated with herpes simplex virus-2; type: in vivo
Description: A preferred example of one of these compounds, known as (S)-HPMPA (Formula V) was disclosed by DeClercq, et al., in Nature, 323: 464-467 (1986) and earlier by Holy, et al, Nucleic Acids Research, Symposium Series No. 14, pp. 277-278 (1984). Phosphonate compounds which are HPMPA analogs are described in South African Patent 1987/8607. […] In a 21 day protocol 30% of a group of animals treated i.p. with 50 mg/kg/day of (S)-HPMPA survived. [drawing 5]

HSV-1 = assay: plaque reduction assay, HSV-1 (vero cells); type: cell-based, herpes simplex virus I; conditions: for IC50: 48 h, read-out: ID50 HSV-1
Description: (§1) Herpes simplex virus (HSV) strains were grown and titered at 37° C. in vero cells (African Green Monkey Kidney cells) and used for virus work before the tenth passage.
(§2) Cells were grown and maintained in Earle's Minimum Essential Medium (EMEM), Gibco Laboratories, supplemented with 0.75% sodium bicarbonate, 2 mM 1-glutamine, Pen-strep. and 5-10% fetal calf serum.
(§3) The titer of HSV strains is determined by a plaque titration method (Roizman and Roane, Virology, 115: 75-79, 1961). Tissue culture 24-well petri dishes are seeded with cells and used for assays when approximately 75% monolayer. Volumes (0.1 ml) of logarithmic dilutions of the virus strain are inoculated onto each of triplicate wells, and absorbed for one hour with intermittent shaking. The inoculum thereafter is removed, and 1 ml of 5-10% EMEM containing 0.3% human immune serum globulin is added. After a 48 hour incubation period at 37° C. in a 5% CO2 atmosphere, the overlay medium is removed and the cell sheets stained with Giemsa stain. The number of plaques is counted, the triplicate is averaged, and the number of plaque-forming units per ml is calculated.
The compounds are tested for activity against the herpes simplex stains using a stock solution of each compound freshly prepared. Appropriate dilution of each compound are made in 10% EMEM before usage. The antiviral efficacy of each compound is determined using the plaque reduction assay described above. Briefly, tissue culture 24-well plates, with approximately 50 plaque forming units of HSV per 0.1 ml, and the virus absorbed for 1 hour, with intermittent shaking. After removal of the inoculum, 1 ml of 10% EMEM containing two-fold dilutions of the appropriate drug are added in triplicates. Triplicate wells/plate receives no drug and are used as a virus control. After a 48-hour incubation period, at 37° C. in a 5% CO2 atmosphere, the overlay medium is removed, the cells are stained as described above, and plaques are counted. The counts of triplicate wells are averaged, and the number of plaques in the presence of each drug dilution are calculated. […]

HSV-2 = assay: plaque reduction assay, HSV-2 (vero cells); type: cell-based, herpes simplex virus II; conditions: for IC50: 48 h
Description: as §1, §2, §3
(§4) The compounds are tested for activity against the herpes simplex stains using a stock solution of each compound freshly prepared. Appropriate dilution of each compound are made in 10% EMEM before usage. The antiviral efficacy of each compound is determined using the plaque reduction assay described above. Briefly, tissue culture 24-well plates, with approximately 50 plaque forming units of HSV per 0.1 ml, and the virus absorbed for 1 hour, with intermittent shaking. After removal of the inoculum, 1 ml of 10% EMEM containing two-fold dilutions of the appropriate drug are added in triplicates. Triplicate wells/plate receives no drug and are used as a virus control. After a 48-hour incubation period, at 37° C. in a 5% CO2 atmosphere, the overlay medium is removed, the cells are stained as described above, and plaques are counted. The counts of triplicate wells are averaged, and the number of plaques in the presence of each drug dilution are calculated.
(§5) The antiviral potency of the drug is determined by ID50, the drug concentration necessary to reduce the number of plaques by 50% of those in the virus control cultures.

HCMV = assay: plaque reduction assay, HCMV strain AD169 (MRC-5 cells); type: cell-based, Human cytomegalovirus (strain AD169); conditions: for IC50: read-out: ID50 HCMV
Description: as §4
Human cytomegalovirus (HCMV) (strain AD169) was grown and titered at 37° C. in human embryonic lung (diploid) cells, MRC-5. The activity of compounds against HCMV was determined by using the procedure for the plaque reduction assay described above.
as §5

MuLV = assay: UV-XC plaque assay, MuLV (SC-1 cells); type: cell-based, murine leukemia virus; conditions: for IC50: Murine leukemia virus
Description: The compounds were evaluated for antiviral activity against murine leukemia virus (MuLV) strains using the UV-XC plaque assay (Rowe, et al., Virology, 42: 1136, 1970).
The MuLV strains were grown in feral mouse cells (SC-1) and used for antiviral tests using the UV-XC plaque assay. Briefly, SC-1 cells are grown as monolayers in 4-well tissue culture plates and inoculated with approximately 50-100 plaque forming units of MuLV in 0.5 ml of 5% EMEM containing 20 μg/ml DEAE/Dextran. After 1 hour adsorption, the inoculum is removed and 5 ml of 5% EMEM containing three-fold dilutions of the appropriate drug are added. Five days later, the cultures are UV-irradiated with an ultraviolet lamp and rat XC sarcoma cells are added to the cultures. Three-four days after UV-irradiation, the cell cultures are stained with Giemsa stain and the plaques are enumerated. Antiviral activity is expressed in terms of the reduction in the mean number of UV-XC plaques counted in the drug treated, virus-infected cultures compared with mean number of plaques counted in untreated, virus-infected control cultures.
as §5

[1] = Human alphaherpesvirus 2, Table 2, drug concentration reducing plaques by 50%, vero cells, read-out: ID50 HSV-2
[2] = SC1, Table 2, UV-XC plaque assay, SC-1 cells, read-out: ID50 MULV
[3] = Human betaherpesvirus 5, MRC5, 48 h, Table 2, strain AD169, MRC-5 cells

`Nc1ncnc2c1ncn2C[C@@H](CO)OCP(=O)(O)O` [(S)-HPMPA] was tested, and the animals survived (herpes simples virus-2; HSV-2, i.p., 50 mg/kg/day, 21 day protocol) was 30% and the “activity in mice inoculated with herpes simplex virus-2 (in words)” value (herpes simples virus-2; HSV-2, in applicant's hands) was “only slightly active”.

For `N.Nc1nc2c(ncn2OCOCP(=O)(O)O)c(=O)[nH]1` [Compound 14, 9-[(Phosphonomethoxy)methoxy]guanine ammonium salt], the IC50 (HSV-1; Human alphaherpesvirus 1, Vero) was 2.2 µg/mL, the “HSV-1 activity (in words)” value (HSV-1; compared with ACV) was “comparable to acyclovir (ACV)” and the “HSV-2 activity (in words)” value (HSV-2) was “comparable to acyclovir (ACV)”. It also gave an IC50 (HSV-2; Human alphaherpesvirus 2, Vero, read-out: ID50 HSV2) of 1.3 µg/mL and an IC50 (HCMV; Human betaherpesvirus 5, AD169, MRC5, 48 h) of 0.2 µg/mL.

Work on `Nc1nc2c(ncn2COCCO)c(=O)[nH]1` [ACV, acyclovir, reference compound] yielded an IC50 (HSV-1; Human alphaherpesvirus 1, Table 1, drug concentration reducing plaques by 50%, vero cells) of 0.6 µg/mL (≈ 2.66 µM), an IC50 (HSV-2; Human alphaherpesvirus 2, Table 1, drug concentration reducing plaques by 50%, vero cells, read-out: ID50 HSV2) of 0.7 µg/mL (≈ 3.11 µM) and an IC50 (HSV-2; [1]) of 0.35 µg/mL (≈ 1.55 µM). The IC50 (HCMV; Human betaherpesvirus 5, MRC5, 48 h, Table 1, strain AD169, MRC-5 cells) was 40 µg/mL (≈ 178 µM) and the IC50 (MuLV; [2]) was greater than 100 µg/mL.

For `N.Nc1ncnc2c1ncn2OCOCP(=O)(O)O` [Compound 4, 9-[(Phosphonomethoxy)methoxy]adenine ammonium salt], the “HSV-2 activity (in words)” value (HSV-2) was “little activity”, the IC50 (HSV-2; Human alphaherpesvirus 2, Vero, read-out: ID50 against HSV-2) was greater than 100 µg/mL and the “activity against MuLV (in words)” value (MuLV) was “good activity”. The IC50 (MuLV; SC-1, read-out: ID50 against MuLV) was 1.5 µg/mL.

`Nc1nc2c(ncn2COC(CO)CO)c(=O)[nH]1` [DHPG, reference compound] was tested, and the IC50 (HSV-2; [1]) was 0.2 µg/mL (≈ 0.784 µM), the IC50 (HCMV; [3]) was 0.4 µg/mL (≈ 1.57 µM) and the IC50 (MuLV; [2]) was greater than 100 µg/mL.

For `Nc1ncnc2c1ncn2OC(CO)OCP(=O)(O)O` (centres unmarked) [Compound 21, ammonium salt], the IC50 (HSV-2; [1]) was 2.6 µg/mL, the IC50 (HCMV; [3]) was 1 µg/mL and the “HCMV activity (in words)” value (HCMV; compared with DHPG) was “comparable to DHPG”. For the same compound, the IC50 (MuLV; [2]) was 1.5 µg/mL.
